{"source": "paper PMC9739695", "about": "“Water-Soluble Salts Based on Benzofuroxan Derivatives—Synthesis and Biological Activity” (International Journal of Molecular Sciences, 2022)", "key": {"[1]": {"tested_on": "A549 (adenocarcinomic human alveolar basal epithelial cells)", "experiment": "Cell viability, MTT test", "format": "cell-based", "details": "read-out: IC50 (concentration causing 50% inhibition of cell population growth)"}, "HeLa (cervical tumor)": {"tested_on": "HeLa (cervical tumor)", "experiment": "Cell viability, MTT test", "format": "cell-based", "details": "Homo sapiens, read-out: IC50 (concentration causing 50% inhibition of cell population growth)"}, "Hep-2 (larynx carcinoma)": {"tested_on": "Hep-2 (larynx carcinoma)", "experiment": "Cell viability, MTT test", "format": "cell-based", "details": "Homo sapiens, read-out: IC50 (concentration causing 50% inhibition of cell population growth)"}, "[2]": {"tested_on": "Hek 293 (human embryonic kidneys)", "experiment": "Cell viability, MTT test, normal cell line", "format": "cell-based", "details": "read-out: IC50 (concentration causing 50% inhibition of cell population growth)"}, "SH-SY5Y (neuroblastoma)": {"tested_on": "SH-SY5Y (neuroblastoma)", "experiment": "Cell viability, MTT test", "format": "cell-based, Human", "details": "Homo sapiens, SH-SY5Y, read-out: IC50 (concentration causing 50% inhibition of cell population growth)"}, "BDF1 mice": {"tested_on": "BDF1 mice", "experiment": "Acute toxicity, single intraperitoneal administration", "format": "in vivo", "description": "(§1) To determine LD50, a curve of increasing toxicity was built with increasing dose, based on which the following parameters were additionally determined: MTD, LD16, LD84 and LD100.\n(§2) In the experiment, clinically healthy animals were used, which were kept in the same conditions with a 12-h light and free access to water and food. Each experimental group included six animals. […] Control animals received 0.9% NaCl solution. Animals were monitored continuously for 4 h on the first day after administration of the test compounds. […] Calculation of toxic doses was performed using probit analysis."}, "[3]": {"experiment": "Acute toxicity, single intraperitoneal administration", "format": "in vivo", "details": "male, BDF1 [DBA2 × C57Bl6] hybrid, mouse, in vivo, ip, BDF1 mice, single intraperitoneal administration", "description": "as §1, §2"}, "rice seeds": {"tested_on": "rice seeds", "experiment": "Pre-sowing seed treatment, sowing qualities of rice seeds", "format": "in vivo", "details": "for germination energy: control 71.4; for laboratory germination: control 95.2"}, "alfalfa seeds": {"tested_on": "alfalfa seeds", "experiment": "Pre-sowing seed treatment, sowing qualities of alfalfa seeds", "format": "in vivo", "details": "for germination energy / laboratory germination: control 76"}, "wheat seeds": {"tested_on": "wheat seeds", "experiment": "Pre-sowing seed treatment, sowing qualities of wheat seeds", "format": "in vivo", "details": "for germination energy: control 82; for laboratory germination: control 85.7"}, "[4]": {"details": "single intraperitoneal administration, doses given in mg/kg, probit analysis"}}, "note": "Where two headings read alike, the source gives them in different places.", "data": [{"smiles": "CN(C)CCCNc1c([N+](=O)[O-])c(Cl)cc2c1no[n+]2[O-].Cl", "note": "[4g, 6-chloro-4-(3-(dimethylammonio)propylamino)-5-nitrobenzo[c][1,2,5]oxadiazole 1-oxide chloride]", "values": [{"measurement": "IC50", "setting": "[1]; A549, 24 h", "value": "82 ± 1.54", "unit": "µM"}, {"measurement": "IC50", "setting": "[1]; A549, 72 h", "value": "64.2 ± 2.12", "unit": "µM"}, {"measurement": "IC50", "setting": "HeLa (cervical tumor); 24 h", "value": "97.8 ± 3.31", "unit": "µM"}, {"measurement": "IC50", "setting": "HeLa (cervical tumor); 72 h", "value": "83.1 ± 4.29", "unit": "µM"}, {"measurement": "IC50", "setting": "Hep-2 (larynx carcinoma); HEp-2, 24 h", "value": "70.3 ± 1.28", "unit": "µM"}, {"measurement": "IC50", "setting": "Hep-2 (larynx carcinoma); HEp-2, 72 h", "value": "58 ± 2.9", "unit": "µM"}, {"measurement": "IC50", "setting": "[2]; HEK293, 24 h", "value": "21.9 ± 0.39", "unit": "µM"}, {"measurement": "IC50", "setting": "[2]; HEK293, 72 h", "value": "12 ± 1.12", "unit": "µM"}, {"measurement": "IC50", "setting": "SH-SY5Y (neuroblastoma); 24 h", "value": "20.9 ± 0.82", "unit": "µM"}, {"measurement": "IC50", "setting": "SH-SY5Y (neuroblastoma); 72 h", "value": "17.07 ± 0.03", "unit": "µM"}, {"measurement": "toxicity class from acute toxicity study", "setting": "BDF1 mice; single i.p.", "value": "highly toxic"}, {"measurement": "Body Weight", "setting": "BDF1 mice; single i.p. 5 mg/kg, 0 Day, control 21.55 ± 0.28", "value": "21.88 ± 0.45", "unit": "g"}, {"measurement": "Body Weight", "setting": "BDF1 mice; single i.p. 5 mg/kg, 1 Day, control 21.43 ± 0.56", "value": "21.59 ± 0.55", "unit": "g"}, {"measurement": "Body Weight", "setting": "BDF1 mice; single i.p. 5 mg/kg, 2 Days, control 21.67 ± 0.77", "value": "21.64 ± 0.71", "unit": "g"}, {"measurement": "Body Weight", "setting": "BDF1 mice; single i.p. 5 mg/kg, 3 Days, control 21.99 ± 0.79", "value": "21.72 ± 0.79", "unit": "g"}, {"measurement": "Body Weight", "setting": "BDF1 mice; single i.p. 5 mg/kg, 7 Days, control 22.80 ± 0.44", "value": "22.12 ± 0.75", "unit": "g"}, {"measurement": "Body Weight", "setting": "BDF1 mice; single i.p. 5 mg/kg, 14 Days, control 23.96 ± 0.68", "value": "23.19 ± 1.21", "unit": "g"}, {"measurement": "Body Weight", "setting": "BDF1 mice; single i.p. 10 mg/kg, 0 Day, control 21.55 ± 0.28", "value": "21.99 ± 0.21", "unit": "g"}, {"measurement": "Body Weight", "setting": "BDF1 mice; single i.p. 10 mg/kg, 1 Day, control 21.43 ± 0.56", "value": "21.54 ± 0.41", "unit": "g"}, {"measurement": "Body Weight", "setting": "BDF1 mice; single i.p. 10 mg/kg, 2 Days, control 21.67 ± 0.77", "value": "21.60 ± 0.52", "unit": "g"}, {"measurement": "Body Weight", "setting": "BDF1 mice; single i.p. 10 mg/kg, 3 Days, control 21.99 ± 0.79", "value": "21.86 ± 0.66", "unit": "g"}, {"measurement": "Body Weight", "setting": "BDF1 mice; single i.p. 10 mg/kg, 7 Days, control 22.80 ± 0.44", "value": "22.84 ± 1.06", "unit": "g"}, {"measurement": "Body Weight", "setting": "BDF1 mice; single i.p. 10 mg/kg, 14 Days, control 23.96 ± 0.68", "value": "23.70 ± 1.12", "unit": "g"}, {"measurement": "Body Weight", "setting": "BDF1 mice; single i.p. 15 mg/kg, 0 Day, control 21.55 ± 0.28", "value": "21.86 ± 0.57", "unit": "g"}, {"measurement": "Body Weight", "setting": "BDF1 mice; single i.p. 15 mg/kg, 1 Day, control 21.43 ± 0.56", "value": "21.36 ± 2.51", "unit": "g"}, {"measurement": "Body Weight", "setting": "BDF1 mice; single i.p. 15 mg/kg, 2 Days, control 21.67 ± 0.77", "value": "21.60 ± 2.43", "unit": "g"}, {"measurement": "Body Weight", "setting": "BDF1 mice; single i.p. 15 mg/kg, 3 Days, control 21.99 ± 0.79", "value": "22.11 ± 3.03", "unit": "g"}, {"measurement": "Body Weight", "setting": "BDF1 mice; single i.p. 15 mg/kg, 7 Days, control 22.80 ± 0.44", "value": "22.41 ± 2.74", "unit": "g"}, {"measurement": "Body Weight", "setting": "BDF1 mice; single i.p. 15 mg/kg, 14 Days, control 23.96 ± 0.68", "value": "23.15 ± 2.14", "unit": "g"}, {"measurement": "Body Weight", "setting": "BDF1 mice; single i.p. 20 mg/kg, 0 Day, control 21.55 ± 0.28", "value": "22.37 ± 0.80", "unit": "g"}, {"measurement": "Body Weight", "setting": "BDF1 mice; single i.p. 20 mg/kg, 1 Day, control 21.43 ± 0.56", "value": "21.99 ± 3.09", "unit": "g"}, {"measurement": "Body Weight", "setting": "BDF1 mice; single i.p. 20 mg/kg, 2 Days, control 21.67 ± 0.77", "value": "21.77 ± 3.79", "unit": "g"}, {"measurement": "Body Weight", "setting": "BDF1 mice; single i.p. 20 mg/kg, 3 Days, control 21.99 ± 0.79", "value": "21.85 ± 3.18", "unit": "g"}, {"measurement": "Body Weight", "setting": "BDF1 mice; single i.p. 20 mg/kg, 7 Days, control 22.80 ± 0.44", "value": "22.81 ± 3.89", "unit": "g"}, {"measurement": "Body Weight", "setting": "BDF1 mice; single i.p. 20 mg/kg, 14 Days, control 23.96 ± 0.68", "value": "23.41 ± 3.01", "unit": "g"}, {"measurement": "Body Weight", "setting": "BDF1 mice; single i.p. 25 mg/kg, 0 Day, control 21.55 ± 0.28", "value": "21.87 ± 0.74", "unit": "g"}, {"measurement": "time after administration at which death of animals began", "setting": "BDF1 mice; single i.p., doses of 10–25 mg/kg", "value": "5 to 30", "unit": "min"}, {"measurement": "LD100", "setting": "BDF1 mice; single intraperitoneal administration, doses given in mg/kg", "value": 25}, {"measurement": "LD16", "setting": "BDF1 mice; [4]", "value": 9.4}, {"measurement": "LD84", "setting": "BDF1 mice; [4]", "value": 20.3}, {"measurement": "MTD at 14 days", "setting": "[3]; doses given in mg/kg", "value": 5, "unit": "mg/kg"}, {"measurement": "LD50 at 14 days", "setting": "[3]; probit analysis", "value": "13.8 ± 1.73", "unit": "mg/kg"}, {"measurement": "germination energy", "setting": "rice seeds; 10 mmol", "value": 38, "unit": "%"}, {"measurement": "laboratory germination", "setting": "rice seeds; 10 mmol", "value": 47.6, "unit": "%"}, {"measurement": "germination energy", "setting": "rice seeds; 20 mmol", "value": 71.4, "unit": "%"}, {"measurement": "laboratory germination", "setting": "rice seeds; 20 mmol", "value": 100, "unit": "%"}, {"measurement": "sowing qualities of seeds compared with control", "setting": "rice seeds; 40 mmol", "value": "at the control level"}, {"measurement": "germination energy", "setting": "rice seeds; 40 mmol", "value": 76.1, "unit": "%"}, {"measurement": "laboratory germination", "setting": "rice seeds; 40 mmol", "value": 95.2, "unit": "%"}, {"measurement": "germination energy", "setting": "alfalfa seeds; 10 mmol", "value": 56.6, "unit": "%"}, {"measurement": "laboratory germination", "setting": "alfalfa seeds; 10 mmol", "value": 60, "unit": "%"}, {"measurement": "germination energy", "setting": "alfalfa seeds; 20 mmol", "value": 43.3, "unit": "%"}, {"measurement": "laboratory germination", "setting": "alfalfa seeds; 20 mmol", "value": 63.3, "unit": "%"}, {"measurement": "sowing qualities of seeds compared with control", "setting": "alfalfa seeds; 40 mmol", "value": "higher than controls"}, {"measurement": "germination energy", "setting": "alfalfa seeds; 40 mmol", "value": 80, "unit": "%"}, {"measurement": "laboratory germination", "setting": "alfalfa seeds; 40 mmol", "value": 80, "unit": "%"}, {"measurement": "germination energy", "setting": "wheat seeds; 10 mmol", "value": 42.8, "unit": "%"}, {"measurement": "laboratory germination", "setting": "wheat seeds; 10 mmol", "value": 47.6, "unit": "%"}, {"measurement": "germination energy", "setting": "wheat seeds; 20 mmol", "value": 80.9, "unit": "%"}, {"measurement": "laboratory germination", "setting": "wheat seeds; 20 mmol", "value": 90.4, "unit": "%"}, {"measurement": "germination energy", "setting": "wheat seeds; 40 mmol", "value": 80.9, "unit": "%"}, {"measurement": "laboratory germination", "setting": "wheat seeds; 40 mmol", "value": 80.9, "unit": "%"}]}]}
